Data set [1] has as its system macrophages (Interleukin-1 release). Description: IL-1 released by macrophages (Elisa sandwich test on culture supernatant). Format: cell-based. An excerpt:
It is known, however, that several factors such as cytokines and growth factors play important roles in the process of wound healing. These factors include the epidermal growth factor (EGF), the fibroblastic growth factor (FGF), the platelet-derived growth factor (PDGF), and the beta transforming growth factor (beta-TGF). In addition to these factors, cytokines such as interleukin-l (IL-1), the tumor necrosis factor (TNF), and interleukin-6 (IL-6) also play important roles in the process of wound healing. These factors act by different methods, in combination with other materials, to induce proliferation of dermal and epidermal elements such as fibroblasts. […] Actually, IL-1 affects the differentiation, growth, and activity of many cellular types in the organism. Within the immune system, IL-1 acts as a second signal that is necessary to activate the IL-2 circuit by the activated T lymphocytes. It also potentiates the action of other cytokines. It contributes to the differentiation of B lymphocytes and to their production of immunoglobulins. It modifies vascular permeability by the release of mediators by the endothelial cells and induces the appearance at their surface of a factor that has a procoagulating activity. Owing to its proliferative effect on the fibroblasts, it intervenes in the repair phase.
To show the effect of activating macrophages by sophorolipids, an Elisa sandwich test was carried out on the supernatant of a culture medium that contained macrophages. […] A negative test was also used.

A short description of another data set: in vitro. As to conditions: keratinocyte culture.
For another data set, the system named is melanocytes. Description: Melanine dosage in melanocytes after 7 and 14 days. Format: cell-based. The conditions noted are these: for activity at 100 µM / activity at 10 µM / activity at 1 µM: Melanocyte, read-out: Melanine content; for activity at 100 µM: 10^-4M; for activity at 10 µM: 10^-5M; for activity at 1 µM: 10^-6M. The procedure:
It is noted that cutaneous ageing causes epidermal functions to slow down: melanine no longer comes to the surface of the skin in a homogeneous manner and concentrates inside certain cells, and brown spots appear mainly on the hands, the forearms, and the neckline. […] Residues are picked up in PBS/triton X-100 (1% v/v) and sounds for 30 seconds. The cellular lysate is ultracentrifuged (105,000 rpm for 40 minutes at +4° C.). The residue that is obtained is then picked up in 1 ml of PBS. The proportion of protein is determined by the calorimetric method (Biorad) and then adjusted to 1.5 mg/ml.
100-(content of melanine of the tested product×100/content of melanine TN)
TN corresponds to the negative test.
As a result, again, the galenical forms are diverse. An example of an anti-spot cream for hands that is also used in cosmetics or in therapeutics is provided below, however: […]

A further data set relates to fibroblasts. Nature of the data set: Cytotoxicity on primocultures at 24 hours (neutral red), fibroblasts. Format: cell-based. The text has this:
Their innocuousness and their activity make it possible to use them in other stages of healing, namely granulation and epithelialization, by modulating their concentration in the formulas of products that are used. This is possible only because of the low cytotoxicity of sophorolipids, as Tables 3A and 3B show. The toxicity of the products of the invention has been evaluated with a viability test with neutral red on two cellular types of the skin, cells L929 and other fibroblasts of the dermis and cells NCTC 2544 and keratinocytes of the epidermis. The results, which are presented in Tables 3A, 3B, correspond to the rates of cellular viability that are expressed in % relative to the negative test.

As usually defined, the viability is a read-out of living cells in per cent, often relative to untreated cells.

Where two headings read alike, the source gives them in different places.

Protocol for in vitro: A keratinocyte culture that was placed under conditions that promote the differentiation of cells was selected as a cellular model for the study. The actions of sophorolipids in acid form A, sophorolipids in lactone form B, and lactic acid on the detachment of corneocytes of the selected cellular model were tested in vitro in parallel. In each experiment, the mean difference T60-T0 (corneocytes/ml), as well as the proportion of detached corneocytes, expressed in percentage relative to the negative test (%/TN), were determined.
Cellular viability, measured with the Neutral Red test, is expressed relative to the negative test (%).

Turning to `CC1CCCCCC/C=C\CCCCCCCC(=O)O[C@H]2[C@H](O)[C@@H](O)[C@H](O[C@H]3[C@H](O1)O[C@H](CO)[C@@H](O)[C@@H]3O)O[C@@H]2CO` (some centres unmarked) [Sophorolipid in Lactone Form], the “Concentrations IL-1 released by macrophages” value (“Concentrations IL-1 released” for short) in data set [1] (10^-4M) came to 255.4 pg/mL. Besides, the “Concentrations IL-1 released” value in data set [1] (10^-5M) amounted to 385.9 pg/mL. Further, in data set [1] (10^-6M), the “Concentrations IL-1 released” value was 345.1 pg/mL. In the data set “in vitro”, the viability at 1 µM is 98.8%, the viability at 10 µM was determined as 101% and the viability at 100 µM was found to be 99.1%.
For the compound `CC(CCCCCC/C=C\CCCCCCCC(=O)O)O[C@@H]1O[C@H](CO)[C@@H](O)[C@H](O)[C@H]1O[C@@H]1O[C@H](CO)[C@@H](O)[C@H](O)[C@H]1O` (some centres unmarked) [Sophorolipid in Acid Form], in the data set on melanocytes (168 h, at day 7), the activity at 100 µM was 56.2%, the activity at 10 µM was determined as 65.8% and the activity at 1 µM stood at 93.6%. Also, in the data set with melanocytes (336 h, at day 14), the activity at 100 µM stood at 56.8%, the activity at 10 µM was found to be 86.4% and the activity at 1 µM came to 95.4%. Also, the “effect on synthesis of melanine” value in the data set with melanocytes (unlike linolenic acid) is “reduction in the synthesis of melanine”. Also, in data set [1] (10^-4M), the “Concentrations IL-1 released” value stood at 795.6 pg/mL and the “action on IL-1 release relative to that of lipopolysaccharides (fold)” value is “twice”. Further, in data set [1] (10^-5M), the “Concentrations IL-1 released” value came out at 500.8 pg/mL and the “action on IL-1 release compared with lipopolysaccharides” value is “equivalent to that of lipopolysaccharides”. In data set [1] (10^-6M), the “Concentrations IL-1 released” value stood at 287.2 pg/mL. For the same compound, in the data set with fibroblasts (Tables 3A and 3B), the “times less toxic than the lactone form” value is recorded as 10 times. For the same compound, the “Cellular Viability Rate” value with fibroblasts (fibroblasts, 24 hours, 10^-6M, 1 µM) is given as 99.65 % relative to TN. Moreover, in “in vitro”, the viability at 1 µM turned out to be 99.6%, the viability at 10 µM amounted to 99.8% and the viability at 100 µM is 98.7%.

For the origin of these results see patent publication US5981497A, “Utilization of sophorolipids as therapeutically active substances or cosmetic products, in particular for the treatment of the skin” (Institut Francais du Petrole, priority 1995, dated 1999).
